In patent publication US9498486B1, “Method for controlled release oral dosage of a vitamin D compound” (OPKO RENAL, LLC, priority 2007, dated 2016):

Key:
[1] = Expected rise in serum 25-hydroxyvitamin D3 in a human after a single dose; assay type: in vivo; details: single dose of 50 μg to a human (about 60 kg)
[2] = Example 1: single-dose pharmacokinetics of serum 25-hydroxyvitamin D3 in miniature swine; assay type: in vivo; details: Yucatan miniature swine
Description: Nine oral vitamin D formulations were prepared according to Table 3 below by homogeneously mixing the identified components in the amounts shown and filling the mixtures into hard gelatin capsules. Formulation 9 is an immediate-release formulation according to the prior art, wherein MIGLYOL 812N is the trade name for caprylic/capric triglycerides, available from CONDEA Chemie GmbH of Cranford, N.J., USA. […] Each group included five animals.
Blood was collected pre-dose, and at 0.5, 1, 2, 4, 6, 8, 12, 24, 48, 96, 168, 240, 336, 432, 504, 576, and 672 hours post dosing. Serum 25-hydroxyvitamin D3 levels were assayed by Liquid Chromatography/Mass Spectrometry/Mass Spectrometry (LC MS/MS).

[3] = 250 μg via intravenous injection, AVG

Compound: C=C1CC[C@H](O)C/C1=C/C=C1\CCC[C@]2(C)[C@@H]([C@H](C)CCCC(C)(C)O)CC[C@@H]12 [25-hydroxyvitamin D3]
- expected increase in serum levels of 25-hydroxyvitamin D3 [1]: about 1.4 ng/ml

Compound: C=C1CC[C@H](O)C/C1=C/C=C1\CCC[C@]2(C)[C@@H]([C@H](C)CCCC(C)(C)O)CC[C@@H]12 [Group 10, 25-hydroxyvitamin D3]
- AUC (0-672 hr) ([2]; 250 μg 25-hydroxyvitamin D3 via intravenous injection, AVG): 15038.0 ng·h/mL
- BA ([2]; 250 μg via intravenous injection): 100.0%
- AUC (0-INF) [2, 3]: 16616.1 ng·h/mL
- Cmax [2, 3]: 154.9 ng/mL
- T1/2 [2, 3]: 132.4 h
- Tmax [2, 3]: 1.5 h
